“Also recorded” adds a separate entry of the source.
How the values were obtained:
erythroid cells = test: FACS analysis of erythroid cells (TER-119) in bone marrow cells of mice treated with EC-18; format: in vivo, C57BL mouse; details: C57BL mice, EC-18 orally 50 mg/kg for seven days; untreated mice 31.2%
Description: Bone marrow cells were isolated from C57BL mice in the following manner. A total of eight 9-week-old C57 BL mice weighting […] were used in the experiment. Three mice were used as control (C1-3). EC-18 was administered orally to five mice at a dose of 50 mg/kg for seven days. Mice were sacrificed by […] and sterilized with 70% alcohol. The tissue of tibia and femur was cut, skin was removed and muscles were taken out. After removing tibia by breaking it in the opposite direction, the sample was washed with 70% alcohol and placed in PBS. After removing the cartilage between femur and tibia, muscles were removed from femur. Femur was separated from pelvis, washed in 70% alcohol and placed in PBS. In order to isolate bone marrow cells from femur, the pelvic end was cut and after filling the 1 ml syringe with culture media, the needle was injected into the cartilage in the knee side to allow bone marrow cells to be pushed out. […]
Differentiation and proliferation of erythroid cells in bone marrow cells collected from C57BL mice treated with EC-18 were analyzed by using TER-119 antibody (BD Biosciences-Pharmingen, San Jose, Calif., USA), which is a marker of erythroid cells, and FACS. […] Bone marrow cells isolated by the method of Example 2 were stained by incubating with anti-TER119-FITC antibody and analyzed by using FACscan flow cytometer (Becton Dickinson, San Jose, Calif.).

[1] = test system: cells other than erythroid cells in bone marrow cells; test: FACS analysis of other bone marrow cells (B, T, DC, macrophages, neutrophils, NK) of mice treated with EC-18; format: in vivo, C57BL mouse; details: C57BL mice, EC-18 orally 50 mg/kg for seven days, CD19, CD4, CD8, CD11c, CD11b/F4, CD11b/ly, CD122 antibodies
Description: Bone marrow cells were isolated from C57BL mice in the following manner. A total of eight 9-week-old C57 BL mice weighting […] were used in the experiment. Three mice were used as control (C1-3). EC-18 was administered orally to five mice at a dose of 50 mg/kg for seven days. Mice were sacrificed by […] and sterilized with 70% alcohol. The tissue of tibia and femur was cut, skin was removed and muscles were taken out. After removing tibia by breaking it in the opposite direction, the sample was washed with 70% alcohol and placed in PBS. After removing the cartilage between femur and tibia, muscles were removed from femur. Femur was separated from pelvis, washed in 70% alcohol and placed in PBS. In order to isolate bone marrow cells from femur, the pelvic end was cut and after filling the 1 ml syringe with culture media, the needle was injected into the cartilage in the knee side to allow bone marrow cells to be pushed out. The culture media containing bone marrow cells was transferred to a tube and the tube was centrifuged. […]
Bone marrow cells isolated from C57BL mice treated with EC-18 (EC1-EC5, EC-18) and untreated mice (C1-C3, con) were compared. […] Cells were incubated with TER-119, CD19, CD4, CD8, CD11c, CD11b/ly, CD122 antibodies (BD Biosciences-Pharmingen, San Jose, CA, USA) for 1 hour and analyzed using FACscan flow cytometer (Becton Dickinson, San Jose, Calif.).

[2] = GLP toxicity test; cited from earlier work
[3] = sepsis animal model, cecal-ligation-puncture; cited from earlier work
erythrocytes = test: Concentration of erythrocytes in blood of phenyl hydrazine anemia-induced mice; format: in vivo, mouse; details: EC-18 orally 5 mg/ml
Description: To observe changes in the level of erythrocytes in mouse blood, anemia-induced mice were prepared by administering phenyl hydrazine (PHZ) intraperitoneally into mice weighing […] at a dose of […]. After administering EC-18 orally to the mice at a dose of 5 mg/ml, blood was collected after 3 days and 13 days. For comparison, a normal group that was not treated with phenyl hydrazine and a control group that was treated with olive oil instead of EC-18 were prepared and blood was collected from the groups after 3 days and 13 days. Collected blood was transferred to EDTA bottle 0.5 ml (Minicollect tube, Greiner bio-one, Austria) and the concentration of erythrocytes (number per pl, unit: 10^6) was measured using a flow cytometer, Auto Hematology Analyzer BC-5300 (Mindray, Shenzhen, China). FIG. 5 is a graph showing the concentration of erythrocytes 3 days after phenyl hydrazine treatment in the normal group, the control group (treated with PHZ and olive oil) and the test group (treated with PHZ and EC-18). FIG. 6 is a graph showing the concentration of erythrocytes 13 days after phenyl hydrazine treatment in the normal group, the control group and the test group.

CCCCC/C=C\C/C=C\CCCCCCCC(=O)OC(COC(C)=O)COC(=O)CCCCCCCCCCCCCCC (stereo not drawn) [EC-18, 1-palmitoyl-2-linoleoyl-3-acetylglycerol]
percentage of erythroid cells in bone marrow cells (TER-119, FACS) (erythroid cells): 41.7% | ratio of cells other than erythroid cells in bone marrow cells [1]: maintained same; also recorded: not changed | toxicity [2]: no toxicity | survivability ratio of animals [3]: increases survivability ratio | concentration of erythrocytes in blood 3 days after PHZ treatment (erythrocytes; vs control (PHZ and olive oil), 3 days): mitigates the reduction of erythrocytes | concentration of erythrocytes in blood 13 days after PHZ treatment (erythrocytes; vs normal group, 13 days): slightly higher than the normal level

Reference: patent US20160279088A1, “COMPOSITION FOR PROMOTING DIFFERENTIATION OR PROLIFERATION OF ERYTHROCYTIC CELLS, CONTAINING MONOACETYL DIACYLGLYCEROL COMPOUND AS ACTIVE INGREDIENT” (ENZYCHEM LIFESCIENCES CORPORATION, priority 2013, published 2016)
